In data set [1] the test system is RNA polymerase II Serine 5 phosphorylation in A549 cells overexpressing CDK7 mutant (C312S). Nature of the data set: Imaging-based cellular RNA PolII Ser5 phosphorylation assay in A549 cells overexpressing CDK7-mutant (C312S). In kind it is cell-based, human. Conditions: Homo sapiens, A549, A549 cells overexpressing CDK7 mutant (C312S); read-out: CDK7_ A549 mutant hCDK7(pIC50) (converted). In a few lines:
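A stably transduced A549 pool overexpressing CDK7 C312S, a mutant that blocks covalent binding at Cys312, while retaining endogenous wild-type CDK7 was used. Ser5 phosphorylation was measured by imaging, and IC50 values were derived.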

In data set [2] the test system is RNA polymerase II Serine 5 phosphorylation (CDK7) in A549 cells.
Source text: To evaluate inhibition of CDK7 kinase activity, a 384-well automated imaging assay was used. This assay detects Serine 5 phosphorylation on a unique heptapeptide sequence in the C-terminal domain of Rpb1 subunit of RNA polymerase II, the downstream substrate of CDK7. This heptapeptide sequence is repeated up to 52 times in the CTD of Rpb1.
RNA Polymerase II Serine 5 phosphorylation was detected using a specific rabbit Phospho-Rpb1 CTD (Ser5) antibody. A549 adenocarcinoma human alveolar basal epithelial cells were seeded in 20 μl medium (DMEM supplemented with 1% Fetal Bovine Serum (heat inactivated 30′ 56° C.), 2 mM L-glutamine, 50 U/ml penicillin 50 μg/ml streptomycin, 1 mM sodium pyruvate and 50 mM hepes) at 1000 cells/well and cultured in poly-D-lysine coated μclear 384 black plates for 20 hours at 37° C. and 5% CO2.
After incubation cells were challenged with compound for 3 hours at 37° C. and 5% CO2. DMSO was used as high control and as low control 10 μM of the following reference compound was used:
40 nl of test compounds and controls were spotted in cell plates using Echo Liquid Handler (Echo 550, Labcyte). Incubation was followed by 20 minutes fixation with 20 μl 10% formaldehyde at room temperature. Medium/formaldehyde solution was removed, plates were washed 3 times with 30 μl D-PBS (w/o Ca^2+ and Ma^2+) and permeabilization was done by adding 20 μl ice cold methanol for 20 minutes. Cells were washed again 3 times with 30 μl D-PBS and 20 μl blocking buffer (25 ml fetal bovine serum in 500 ml D-PBS) was added for 1 hour.
After removing blocking buffer 20 μl 1/1000 primary antibody rabbit Phospho-Rpb1 CTD (Ser5) antibody was added which binds to the phosphorylated Serine5 of the heptapeptide sequences in the CTD of Rpb1. […] Last, plates were washed 2 times with 30 μl D-PBS and wells were filled with 40 μL D-PBS, plates were sealed (Thermowell sealing tape) and stored at 4° C. until reading. Plates were read with Opera Phenix (Perkin Elmer) with 10× air objective. Data were calculated and analyzed in Phaedra.
IC50 values were calculated using the following formula
Average value of all HC's and all LC's are used for normalizations.
% Effect=100−(sample-LC)/(HC-LC)×100
% Control=(sample/HC)×100
From this an IC50 value can be obtained. An estimate of the slope of the plot in terms of the Hill coefficient is also obtained.
The target in data set [3] is CDK7/cyclinH/MAT1 trimeric complex (Homo sapiens (Human), UniProt P50613). Description: In vitro CDK7 assay, potency of irreversible covalent inhibitors (kinact/KI).
[4] abbreviates: CDK7 (20 nM enz.) (KI, μM), 20 nM enz.
The mark [5] stands for this setting: read-out: CDK7 (20 nM enz.) (kinact, s^−1), 20 nM enz.
The mark [6] stands for this setting: read-out: CDK7 (20 nM enz.) (kinact/ KI, M^−1*s^−1), 20 nM enz.

What is called melting point is the temperature, or range, at which the solid turns liquid. In general, pIC50 refers to the negative decadic logarithm of the IC50, by convention in mol/L. A higher pIC50 goes with a low IC50. As usually defined, the kinact is the rate constant of inactivation at saturating inhibitor.

pIC50: −log10 of the molar value. Where two headings read alike, the source gives them in different places.

CDK7/cyclinH/MAT1 trimeric complex, sequence (P50613 whole entry): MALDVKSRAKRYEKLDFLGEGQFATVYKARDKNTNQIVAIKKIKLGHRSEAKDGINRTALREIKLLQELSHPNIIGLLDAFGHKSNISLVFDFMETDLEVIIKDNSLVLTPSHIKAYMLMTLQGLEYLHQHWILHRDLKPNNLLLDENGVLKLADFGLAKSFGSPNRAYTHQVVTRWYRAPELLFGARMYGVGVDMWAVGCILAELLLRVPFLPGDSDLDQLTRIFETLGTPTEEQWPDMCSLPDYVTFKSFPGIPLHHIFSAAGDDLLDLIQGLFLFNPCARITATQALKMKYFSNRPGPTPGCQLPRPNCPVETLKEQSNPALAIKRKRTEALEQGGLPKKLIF
CDK7/cyclinH/MAT1 trimeric complex, sequence (P51946 whole entry partner): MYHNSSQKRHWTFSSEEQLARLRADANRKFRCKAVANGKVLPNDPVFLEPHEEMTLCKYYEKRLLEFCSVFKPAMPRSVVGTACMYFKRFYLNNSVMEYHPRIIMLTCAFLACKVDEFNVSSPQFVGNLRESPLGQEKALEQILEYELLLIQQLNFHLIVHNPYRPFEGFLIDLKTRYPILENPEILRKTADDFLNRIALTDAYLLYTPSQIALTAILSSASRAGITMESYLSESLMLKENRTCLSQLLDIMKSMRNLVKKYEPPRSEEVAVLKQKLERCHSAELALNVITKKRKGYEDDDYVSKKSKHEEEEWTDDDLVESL
CDK7/cyclinH/MAT1 trimeric complex, sequence (P51948 whole entry partner): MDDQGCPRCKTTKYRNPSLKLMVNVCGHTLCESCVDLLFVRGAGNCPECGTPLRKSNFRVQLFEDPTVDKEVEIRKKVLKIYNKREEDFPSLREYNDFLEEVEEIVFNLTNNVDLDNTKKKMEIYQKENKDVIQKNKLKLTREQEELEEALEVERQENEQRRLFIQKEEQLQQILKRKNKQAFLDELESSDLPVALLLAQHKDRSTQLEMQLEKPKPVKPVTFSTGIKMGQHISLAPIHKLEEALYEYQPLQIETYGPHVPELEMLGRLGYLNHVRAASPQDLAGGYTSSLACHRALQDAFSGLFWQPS

Consider `C=CC(=O)N1CC(N2CCC(c3ccc4c(c3)Nc3ncnc(N5CCOCC5)c3[C@@H](CC)O4)CC2)C1` (single isomer, unassigned) [compound 76], for which the melting point worked out at 124 °C. The IC50 in data set [1] is above 10000 nM. The compound also had a pIC50 in data set [2] of 5.78. Moreover, in data set [3] (setting [4]), the Ki is 0.457 µM. Also, the inactivation rate constant (kinact) in data set [3] (setting [5]) came to 3.9e-05 s⁻¹. The kinact/KI in data set [3] (setting [6]) came to 85.3 M⁻¹ s⁻¹.
In turn, `C=CC(=O)N1CCC(N2CC(c3cc(C)c4c(c3)Nc3ncnc(N5CCS(=O)(=O)CC5)c3CO4)C2)CC1` [compound 87] displayed a melting point of 200 °C. In addition, the IC50 in data set [1] is 7760 nM. This compound also gave a pIC50 in data set [2] of 7.09. In data set [3] (setting [4]), this compound gave a Ki of 0.234 µM. Moreover, in data set [3] (setting [5]), the kinact turned out to be 4.3e-05 s⁻¹. Moreover, in data set [3] (setting [6]), the kinact/KI was 184 M⁻¹ s⁻¹.
Regarding `C=CC(=O)N1CCC(N2CC(c3cc4c(c(C(F)(F)F)c3)OCc3c(ncnc3N3CCOCC3)N4)C2)CC1` [compound 45], the melting point came to 158 °C. Also, in data set [1], the IC50 is above 10000 nM. Further, the pIC50 in data set [2] is 6.37. In addition, the Ki in data set [3] (setting [4]) turned out to be 0.219 µM. Moreover, the kinact in data set [3] (setting [5]) stood at 4.44e-05 s⁻¹. Besides, in data set [3] (setting [6]), the kinact/KI is 203 M⁻¹ s⁻¹.
In turn, `C=CC(=O)N1CC(N2CCC(c3cc(C)c4c(c3)Nc3ncnc(N5CCS(=O)(=O)CC5)c3[C@@H](C)O4)CC2)C1` (single isomer, unassigned) [compound 84] showed a melting point above 300 °C. The IC50 in data set [1] was above 10000 nM. The compound also had a pIC50 in data set [2] of 6.95. In data set [3] (setting [4]), this compound registered a Ki of 0.148 µM. In addition, the kinact in data set [3] (setting [5]) is 8.33e-05 s⁻¹. Further, the kinact/KI in data set [3] (setting [6]) worked out at 563 M⁻¹ s⁻¹.
`C=CC(=O)N1CC(C2CCN(c3ccc4c(c3)Nc3ncnc(N5CCOCC5)c3CO4)CC2)C1` [compound 7]: the melting point was 234 °C. Besides, the IC50 in data set [1] is above 10000 nM. The pIC50 in data set [2] is 5.17. In data set [3] (CDK7 (KI(μM)), Table B), the Ki was determined as 1.79 µM. The inactivation rate constant (kinact) in data set [3] (read-out: CDK7 (kinact, s^−1), Table B) was 0.000178 s⁻¹. In data set [3] (read-out: CDK7 (kinact/KI, M^−1*s^−1), Table B), the kinact/KI was 99.5 M⁻¹ s⁻¹.
Compound `C=CC(=O)N1CC(N2CCC(c3ccc4c(c3)Nc3ncnc(C5=CCOCC5)c3CO4)CC2)C1` [compound 39] registered a melting point of 243 °C. Moreover, the IC50 in data set [1] was above 10000 nM. The compound also gave a negative-log IC50 (pIC50) in data set [2] of 5.65. In addition, the Ki in data set [3] (setting [4]) was determined as 0.61 µM. Moreover, the kinact in data set [3] (setting [5]) was 5.09e-05 s⁻¹. Besides, the kinact/KI in data set [3] (setting [6]) worked out at 83.4 M⁻¹ s⁻¹.
`C=CC(=O)N1CC[C@@H](N2CC(c3cc4c(c(C5CC5)c3)OCc3c(ncnc3N3CCS(=O)(=O)CC3)N4)C2)C1` (single isomer, unassigned) [compound 93] came in with a melting point above 300 °C. Further, in data set [1], the IC50 is above 10000 nM. For the same compound, in data set [2], the pIC50 is 6.37. This compound had a Ki in data set [3] (setting [4]) of 0.277 µM. Also, the kinact in data set [3] (setting [5]) was 6.26e-05 s⁻¹. Also, in data set [3] (setting [6]), the kinact/KI was 226 M⁻¹ s⁻¹.
`C=CC(=O)N1CCC(N2CC(c3cc4c(c(C)n3)OCc3c(ncnc3N3CCS(=O)(=O)CC3)N4)C2)CC1` [compound 63] registered a melting point of 190 °C. Also, the IC50 in data set [1] was above 10000 nM. The compound further had a pIC50 in data set [2] of 5.77. Besides, the Ki in data set [3] (setting [4]) amounted to 0.174 µM. Further, the kinact in data set [3] (setting [5]) was 3.22e-05 s⁻¹. The kinact/KI in data set [3] (setting [6]) came to 186 M⁻¹ s⁻¹.
`C=CC(=O)N1CC(N2CCC(c3cc(F)c4c(c3)Nc3ncnc(N5CCOCC5)c3[C@H](C)O4)CC2)C1` (single isomer, unassigned) [compound 49] gave a melting point of 180 °C. Moreover, the IC50 in data set [1] was above 10000 nM. Further, in data set [2], the negative logarithm of the IC50 (pIC50) is 6.75. This compound came in with a Ki in data set [3] (setting [4]) of 0.118 µM. Besides, the kinact in data set [3] (setting [5]) was 5.65e-05 s⁻¹. Besides, in data set [3] (setting [6]), the kinact/KI is 478 M⁻¹ s⁻¹.
As for `C=CC(=O)N1CC(N2CCC(c3cc4c(c(C)n3)OCc3c(ncnc3N3CCS(=O)(=O)CC3)N4)CC2)C1` [compound 58], the melting point stood at 257 °C. Also, the IC50 in data set [1] was above 10000 nM. The compound also showed a pIC50 in data set [2] of 6.54. Also, in data set [3] (setting [4]), the Ki came to 0.0451 µM. Moreover, in data set [3] (setting [5]), the maximal inactivation rate constant (kinact) stood at 5.57e-05 s⁻¹. Besides, the kinact/KI in data set [3] (setting [6]) was found to be 1240 M⁻¹ s⁻¹.

For the origin of these results see patent US20240109912A1, “TRICYCLIC PYRIMIDINES AS CYCLIN-DEPENDENT KINASE 7 (CDK7) INHIBITORS” (JANSSEN PHARMACEUTICA NV, priority 2020, published 2024).
